Data as given in publication PMC9976893, “Dynamic states of eIF6 and SDS variants modulate interactions with uL14 of the 60S ribosomal subunit” (Nucleic Acids Research, 2023).

System: full-length human eIF6
Experiment: Surface plasmon resonance of uL14 peptides on immobilized eIF6
Conditions: BIAcore S200, eIF6 on CM5 chip, peptide 0-500 μM in 20 mM HEPES pH 7.4, 150 mM NaCl, 0.01% BSA, 0.002% Tween 20; repeated three times; non-specific binding subtracted
Description: SPR analyses were carried out using a BIAcore S200 instrument (GE-Healthcare). eIF6 (50 μg/ml) was solubilized in 20 mM ammonium acetate pH 4.0 and immediately immobilized on a CM5 sensor chip (4913 Response Units [RU] using NHS/EDC chemistry). After baseline stabilization, titrations were performed by injecting increasing concentrations (0–500 μM, 1:2 dilutions) of uL14-WT ([…]), the site-specific mutant peptides, or the uL14-ΔC ([…]) peptide, solubilized in running buffer (20 mM HEPES pH 7.4, 150 mM NaCl, 0.01% BSA, and 0.002% Tween 20). At the end of each titration, a solution of 20 mM HEPES pH 7.4 and 1.5 M NaCl was used to regenerate the chip. The flow rate was 25 μl/min. Peptides were solubilized in water and their concentration determined at 280 nm using the molar extinction coefficient ϵ280 = 5500 M^−1 cm^−1. To ensure reproducibility, each experiment was repeated three times. Sensograms were corrected for baseline.
For SPR studies, full-length elF6 was immobilized to the surface, and the C-terminal peptide of uL14 (aa 121–140) was used in the fluid phase (Figure 2D). […] The contribution of non-specific binding of the peptide to the surface was subtracted for each sensorgram. […] It further highlighted the significance of the N135 and S138 for interaction with eIF6. […]

- binding to immobilized eIF6 (SPR): complete loss in binding
Sequence: VAKECADLWPRI [uL14-ΔC]
